Laboratory results published in patent US20110213026A1, “EXTRACTS WITH LIVER-X-RECEPTOR MODULATORS, COMPOUNDS AND THEIR USE ESPECIALLY IN WEIGHT CONTROL” (INTERMED DISCOVERY GMBH, priority 2007, published 2011).

Experiments:
[1] = target: T1, LXR ligand binding domain (GST-LXR LBD) (Homo sapiens, UniProt Q13133); experiment: In vitro LXR assay (HTR-FRET, coactivator b-SRC1 recruitment); format: biochemical; conditions: FRET 12-point dose response
T1 sequence (Q13133 209-447): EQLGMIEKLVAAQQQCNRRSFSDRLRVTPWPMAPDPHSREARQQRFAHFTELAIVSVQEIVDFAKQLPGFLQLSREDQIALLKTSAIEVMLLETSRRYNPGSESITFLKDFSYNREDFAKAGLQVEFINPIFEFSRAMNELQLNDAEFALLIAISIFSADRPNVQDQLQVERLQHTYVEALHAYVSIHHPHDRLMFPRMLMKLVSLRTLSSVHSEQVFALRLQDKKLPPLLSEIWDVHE
Text: The LXR assay is configured using time-resolved fluorescence resonance energy transfer technology (HTR-FRET) (see Albers M, Blume B, Schlueter T, Wright MB, Kober I, Kremoser C, Deuschle U, Koegl M; “A novel principle for partial agonism of liver X receptor ligands. Competitive recruitment of activators and repressors”. J. Biol. Chem. 2006 24;281(8) 4920-30; and Chin J, Adams A D, Bouffard A, Green A, Lacson R G, Smith T, Fischer P A, Menke J G, Sparrow C P, Mitnaul L J; “Miniaturization of cell-based beta-lactamase-dependent FRET assays to ultra-high throughput formats to identify agonists of human liver X receptors”. Assay Drug Dev. Technol. 2003 1(6):777-87).
In the presence of an agonist, a fusion protein of glutathione S-transferase (GST) and LXR ligand binding domain (GST-LXR LBD) associates with a biotin-labeled nuclear receptor coactivator (b-SRC1). A fluorescent signal is detected in the presence of Eu-labeled anti GST antibodies and streptavidin-labeled allophycocyanin (APC). FRET is made possible by agonist-dependent close interaction of the test proteins.
Compounds which act as agonists at the LXR ligand binding domain are detected by an increase in time-resolved fluorescence. This LXR-FRET is performed as described by Albers et al. (loc. cit.).
FRET-active compounds are assayed in a FRET 12-point dose response experiment to determine the EC50—values of the compounds mentioned in the following table 9: […]

NPFF2 receptor = NPFF2 receptor (Homo sapiens, UniProt Q9Y5X5); conditions: literature report; cited from earlier work
[2] = In vivo assay in rats: 8 week feeding study, body weight and body fat; design: species or system Sprague-Dawley (SD) rats; conditions: high fat diet, 0.1% in chow, 8 weeks, versus control groups
Method: The “further enriched extract” of Example 2 (also called IMD-XT0003 above and below), containing the LXRα active compounds is prepared and tested using six week old, none-adult, male Sprague-Dawley (SD) rats (Charles Rivers, Sulzfeld, Germany). The extract is mixed with the chow (ssniff Spezialdiäten GmbH, Soest, Germany) to a final concentration of 0.1% by weight and fed for 8 weeks in two different treatment regimes: • Balanced diet (standardised to 4% fat) • High fat diet (standardised 34% fat) Controls obtain the same diet without IMD-XT0003 or other anti-obesity additives. Body weight is studied and analysed every week, body fat and mineral bone density are analysed by DEXA (scanner, see Example 3) in week 0, in week 4 and at the last day of the study in week 8. Furthermore, the white body fat weight is determined after removal of the tissue at the end of the feeding study in week 8. For the DEXA measurements the same apparatuses and methodology are used as described in example 3. As a control experiment within the high fat diet, epigallocatechin-3-gallate (EGCG, Chengdu Purification Technology Development Co. Ltd, Chengdu, China) in pure form is used as the standard for comparison of potency and differentiation as well as benchmark against competing compounds or formulations against obesity. […]

Chain of NPFF2 receptor (Q9Y5X5 whole entry): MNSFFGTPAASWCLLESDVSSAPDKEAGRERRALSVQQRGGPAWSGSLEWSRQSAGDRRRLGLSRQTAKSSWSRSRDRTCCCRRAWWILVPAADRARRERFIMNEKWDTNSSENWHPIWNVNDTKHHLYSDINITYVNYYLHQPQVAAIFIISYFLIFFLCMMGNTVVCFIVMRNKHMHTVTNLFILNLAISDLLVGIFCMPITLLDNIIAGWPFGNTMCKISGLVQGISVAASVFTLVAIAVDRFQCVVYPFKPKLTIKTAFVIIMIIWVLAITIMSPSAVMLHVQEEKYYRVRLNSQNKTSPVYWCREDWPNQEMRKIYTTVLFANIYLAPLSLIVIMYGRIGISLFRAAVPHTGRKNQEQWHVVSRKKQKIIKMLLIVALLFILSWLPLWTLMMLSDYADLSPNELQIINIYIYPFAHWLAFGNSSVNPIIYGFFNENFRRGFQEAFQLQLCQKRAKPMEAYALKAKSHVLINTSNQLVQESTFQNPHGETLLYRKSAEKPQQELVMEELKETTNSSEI

Compound	EC50 [1] [µM]	NPFF2 receptor agonism (NPFF2 receptor)	also measured
COc1cc2c(c(OC)c1OC)-c1c(cc3c(c1OC)OCO3)[C@H](OC(=O)c1ccccc1)[C@@](C)(O)[C@@H](C)C2 [Gomisin G]		potent NPFF2 receptor agonists	
COc1cc2c(c(OC)c1OC)-c1c(cc(OC)c(OC)c1OC)[C@H](OC(=O)c1ccccc1)[C@@](C)(O)[C@@H](C)C2 [benzoylgomisin Q]		potent NPFF2 receptor agonists	
epigallocatechin-3-gallate [EGCG]			body fat accumulation [2]: No effects; body weight accumulation [2]: No effects

Continued, in another order:

EC50 [1] [µM]	Compound	NPFF2 receptor agonism (NPFF2 receptor)	also measured
> 10	COc1cc2c(c(OC)c1OC)-c1c(cc(OC)c(OC)c1OC)CC(C)C(C)C2 (stereo not shown) [Desoxyschizandrol A, 3,3′,4,4′,5,5′-Hexamethoxy-2,2′-cyclolignan]		
10.6	COc1cc2c(c(OC)c1OC)-c1c(cc3c(c1OC)OCO3)CC(C)C(C)C2 (stereo not shown) [Gomisin N, 3,3,4,5-Tetramethoxy-4′,5′-methylenedioxy-2,2′-cyclolignan]		
5.6	COc1c2c(cc3c1-c1c(cc4c(c1OC)OCO4)CC(C)C(C)C3)OCO2 (stereo not shown) [Schizandrin C, 3,3′-Dimethoxy-4,5:4′,5′-bis(methylenedioxy)-2,2′-cyclolignan]		
